Our source for the EC50 and IC50 values is US10144730B2, “Inhibitors of c-Jun-N-terminal kinase (JNK)” (Dana-Farber Cancer Institute, Inc., priority 2011, dated 2018).

Broadly, the IC50 is the midpoint of a concentration-inhibition curve.

Assay [1] has as its system c-Jun phosphorylation. The assay can be described thus: LanthaScreen TR-FRET cell assay for c-Jun phosphorylation in HeLa cells. Format: cell-based. The note with it: Homo sapiens; Hela cells, TNF-α stimulation; read-out: p-c-Jun EC50 (nM) Hela.
Another assay deals with phosphorylation of p38. As to the kind of experiment: High-throughput microscopy, phosphorylation of p38. Type of assay: cell-based. The note with it: Homo sapiens, A-375, A375 cells, anisomycin stimulation, read-out: Cellular EC50 pP38. As to the method:
(§1) A375 cells were stimulated with anisomycin (FIGS. 14A and 14C to 14F), IGF-1 (FIG. 14B), IL-6 (FIG. 14G), and TNF-α (FIG. 14H) for sixty minutes. The output of multiple signaling pathways was measured using high throughput microscopy at multiple concentrations of four JNK inhibitors and a control compound specific to each pathway DMSO (FIG. 14A), MK2206 (allosteric Akt inhibitor, Haoyuan Chemexpress Co., Limited. Hirai, et al., 2010) (FIG. 14B), PD0325901 (allosteric Mek inhibitor, Haoyuan Chemexpress Co., Limited. Barrett, et al., 2008) (FIGS. 14C and 14D), SB239063 (ATP-competitive p38 inhibitor, Haoyuan Chemexpress Co., Limited. Underwood et al., 2000) (FIGS. 14E and 14F), KIN001-040 (ATP-competitive JAK1,2,3 inhibitor, Haoyuan Chemexpress Co., Limited. Thompson et al., 2002) (FIG. 14G), and KIN001-208 (IKK inhibitor VIII, Haoyuan Chemexpress Co., Limited., Murata, et al., 2004) (FIG. 14H).
(§2) Cells were plated at 7500 cells/well in 96-well microscopy plates (Corning) in recommended media for 24 hours, and then starved in media lacking serum for 16 hours. Cells were pre-treated for 180 minutes with 10-fold stock solutions of JNK inhibitors and for 10 min with control compounds MK2206, PD0325901, SB239063, KIN040, and KIN208 and treated with 10-fold stock solutions of IGF-1, IL-6, TNF-α (all PeproTech), or anisomycin for 60 minutes. Cells were fixed in 2% paraformaldehyde for 10 min at room temperature and washed with PBS-T (Phosphate Buffered Saline, 0.1% Tween 20). Cells were permeabilized in methanol for 10 min at room temperature, washed with PBS-T, and blocked in Odyssey Blocking Buffer (LI-COR Biosciences) for 1 hour at room temperature. Cells were incubated overnight at 4° C. with antibody specific for Erk1/2(pT202/pY204), Akt(pS473), c-Jun(pS73), pP38(T180/Y182) and pSTAT3(Y705) (Cell Signaling Technology), pRSK1(S380) and pMSK1(S376) (Epitomics), and NF-κB (Santa Cruz Biotechnology) diluted 1:400 in Odyssey Blocking Buffer. Cells were washed three times in PBS-T and incubated with rabbit-specific secondary antibody labeled with Alexa Fluor 647 (Invitrogen) diluted 1:2000 in Odyssey Blocking Buffer. Cells were washed once in PBS-T and once in PBS and incubated in 250 ng/ml Hoechst 33342 (Invitrogen) and 1:1000 Whole Cell Stain (blue; Thermo Scientific) solution. Cells were washed twice with PBS and imaged in an imageWoRx high-throughput microscope (Applied Precision). Data were plotted using DataPflex. […]

For a further assay, the system named is phosphorylation of RSK. As to the kind of experiment: High-throughput microscopy, phosphorylation of RSK. The note with it: Homo sapiens, A-375, A375 cells, anisomycin stimulation, read-out: Cellular EC50 pRSK. Type of assay: cell-based. As to the method: as §1, §2
The subject of assay [2] is c-Jun phosphorylation. The assay can be described thus: High throughput microscopy of c-Jun phosphorylation in A375 cells. Type of assay: cell-based. The note with it: Homo sapiens, A-375.
The target in the next assay is JNK3 (Homo sapiens, UniProt P53779). The assay can be described thus: Biochemical JNK3 kinase inhibition (Z'-lyte format). The note with it: Table 2.
Where [3] appears, read: A375 cells, anisomycin stimulation, high-throughput microscopy, Table 4, read-out: Cellular EC50 pc-Jun.
The mark [4] stands for this setting: A375 cells, anisomycin stimulation, read-out: p-c-Jun EC50 (nM) A375.

Chain of JNK3 (P53779 whole entry): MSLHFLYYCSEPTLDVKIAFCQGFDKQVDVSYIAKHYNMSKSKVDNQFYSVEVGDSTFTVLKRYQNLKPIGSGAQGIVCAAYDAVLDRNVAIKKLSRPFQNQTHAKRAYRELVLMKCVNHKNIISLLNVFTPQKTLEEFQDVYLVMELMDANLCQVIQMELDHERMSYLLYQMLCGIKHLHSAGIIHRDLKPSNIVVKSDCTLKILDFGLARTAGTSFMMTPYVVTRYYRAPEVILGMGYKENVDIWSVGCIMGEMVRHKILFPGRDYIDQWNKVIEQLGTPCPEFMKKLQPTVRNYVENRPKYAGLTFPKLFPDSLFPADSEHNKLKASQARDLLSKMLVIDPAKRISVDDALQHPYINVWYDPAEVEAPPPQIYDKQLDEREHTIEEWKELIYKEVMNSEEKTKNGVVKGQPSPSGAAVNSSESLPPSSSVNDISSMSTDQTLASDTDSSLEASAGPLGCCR

In the case of `Cc1cc(NC(=O)c2cccc(NC(=O)/C=C/CN(C)C)c2)ccc1Nc1nccc(-c2cccnc2)n1` [JNK-IN-8], the EC50 in the assay on c-Jun phosphorylation [1] was 486 nM; in the assay with phosphorylation of p38 it was more than 10000 nM; with phosphorylation of RSK, more than 10000 nM; in the assay with c-Jun phosphorylation [2] (setting [3]), 425 nM; with c-Jun phosphorylation [2] (setting [4]), 338 nM; in the assay on c-Jun phosphorylation [2] (Table 5, A375, read-out: E50/A375), 338 nM.
With `CN(C)C/C=C/C(=O)Nc1cccc(C(=O)Nc2ccc(Nc3nccc(/C(C#N)=C4\Nc5ccccc5S4)n3)cc2)c1` [JNK-IN-12], the EC50 was 605 nM in the assay on c-Jun phosphorylation [1]; more than 10000 nM in the assay on phosphorylation of p38; more than 10000 nM in the assay with phosphorylation of RSK; 125 nM with c-Jun phosphorylation [2] (setting [3]); 134 nM with c-Jun phosphorylation [2] (setting [4]). On JNK3, this molecule returned an IC50 of 11 nM.
